The results in this text go back to patent US5434246A, “Parathyroid hormone derivatives” (Takeda Chemical Industries, Ltd., priority 1992, dated 1995).

Square brackets hold non-standard residues; d marks the D form. Ends that are not written are not given here. Peptide text beside a SMILES is read from it. hCit = NC(=O)NCCCC[C@H](N)C(=O)O

This experiment addresses T1, PTH receptor (Mus musculus, UniProt P41593).
T1 construct: a mouse cranial bone-derived osteoblast-like cell strain, MC3T3-EI cells; endogenous in cells; host or cells: MC3T3-E1 mouse osteoblast-like cells
T1 sequence (P41593 27-591): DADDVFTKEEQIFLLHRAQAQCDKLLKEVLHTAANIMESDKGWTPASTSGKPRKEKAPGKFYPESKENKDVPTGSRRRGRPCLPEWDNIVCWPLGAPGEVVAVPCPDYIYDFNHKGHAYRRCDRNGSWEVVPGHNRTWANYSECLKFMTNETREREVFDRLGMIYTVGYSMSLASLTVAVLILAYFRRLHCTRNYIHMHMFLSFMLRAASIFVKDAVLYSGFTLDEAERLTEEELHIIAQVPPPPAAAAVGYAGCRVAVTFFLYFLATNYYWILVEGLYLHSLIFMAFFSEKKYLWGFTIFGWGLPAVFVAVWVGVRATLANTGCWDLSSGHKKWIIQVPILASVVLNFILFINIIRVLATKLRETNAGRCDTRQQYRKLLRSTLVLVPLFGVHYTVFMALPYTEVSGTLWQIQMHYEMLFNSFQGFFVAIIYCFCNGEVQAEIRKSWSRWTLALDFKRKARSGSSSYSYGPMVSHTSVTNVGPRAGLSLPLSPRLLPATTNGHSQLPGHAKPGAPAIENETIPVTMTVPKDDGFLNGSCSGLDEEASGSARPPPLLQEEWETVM
Put plainly: cAMP production in MC3T3-EI osteoblast-like cells (biological activity of PTH(1-34) derivatives). Type of experiment: cell-based. Conditions: 0.01-100 nM derivative, room temperature 30 minutes, hPTH(1-34) standard = 1.00. The procedure: The biological activity of the PTH (1-34) derivatives was evaluated by a modified version of the method reported by Shigeno et al. in The Journal of Biological Chemistry 263, 18369-18377 (1988). A culture solution (Hank's solution, containing 20 mM N-2-hydroxyethylpiperazine-N'-2-ethanesulfonic acid-(HEPES), 0.1% bovine serum albumin and 0.5 mM isobutylmethyl-xanthine) containing a 0.01, 0.1, 1, 10 or 100 nM derivative was added in an amount of 100 μl to a mouse cranial bone-derived osteoblast-like cell strain, MC3T3-EI cells, cultivated on a 96-well multiplate (Nunclon, Nunc), followed by reaction at room temperature for 30 minutes. After addition of 100 μl of 0.2N hydrochloric acid, the mixture was immersed in boiling water for 2.5 minutes, and cyclic adenosine monophosphate (cAMP) produced by a PTH receptor was extracted from the cells. The total cAMP in the culture solution and the cells was assayed using a commercial radioimmunoassay kit (cyclic AMP [^125 I] kit "Du Pont-Daiichi", Daiichi Kagaku Yakuhin).
A general note: Cyclic AMP is a second messenger, typically raised through Gs and lowered through Gi signalling.
For the compound `CC[C@H](C)[C@H](NC(=O)[C@H](CCC(=O)O)NC(=O)[C@H](CO)NC(=O)[C@@H](NC(=O)[C@@H](N)CO)C(C)C)C(=O)N[C@@H](CCC(N)=O)C(=O)N[C@@H](CC(C)C)C(=O)N[C@@H](CCSC)C(=O)N[C@@H](Cc1c[nH]cn1)C(=O)N[C@@H](CC(N)=O)C(=O)N[C@@H](CC(C)C)C(=O)NCC(=O)N[C@@H](CCCCN)C(=O)N[C@@H](Cc1c[nH]cn1)C(=O)N[C@@H](CC(C)C)C(=O)N[C@H](C(=O)N[C@@H](CO)C(=O)N[C@@H](CCSC)C(=O)N[C@@H](CCC(=O)O)C(=O)N[C@@H](CCCNC(=N)N)C(=O)N[C@H](C(=O)N[C@@H](CCC(=O)O)C(=O)N[C@@H](Cc1c[nH]c2ccccc12)C(=O)N[C@@H](CC(C)C)C(=O)N[C@@H](CCCNC(=N)N)C(=O)N[C@@H](CCCCN)C(=O)N[C@@H](CCCCN)C(=O)N[C@@H](CC(C)C)C(=O)N[C@@H](CCC(N)=O)C(=O)N[C@@H](CC(=O)O)C(=O)N[C@H](C(=O)N[C@@H](Cc1c[nH]cn1)C(=O)N[C@@H](CC(N)=O)C(=O)N[C@@H](Cc1ccccc1)C(=O)O)C(C)C)C(C)C)[C@@H](C)O` [[Thr^16]hPTH(1-34)], the “Biological Activity, Represented by Relative Activity to hPTH(1-34)” value is given as 1.74.

As to “SVSEIQLMHNLGKKKKKMERVEWLRKKLQDVHNF [[Lys^14,15,16,17]hPTH (1-34), [Lys^14,15,16,17]hPTH(1-34)]”, the “Biological Activity, Represented by Relative Activity to hPTH(1-34)” value was found to be 6.39.

On to “SVSEIQLMHNLGKHLNSMERVEWLRRRLQDVHNF [[Arg^26,27]hPTH (1-34), [Arg^26,27]hPTH(1-34)]”, for which the “Biological Activity, Represented by Relative Activity to hPTH(1-34)” value is on record as 0.98.

As for `CC[C@H](C)[C@H](NC(=O)[C@H](CCC(=O)O)NC(=O)[C@H](CO)NC(=O)[C@@H](NC(=O)[C@@H](N)CO)C(C)C)C(=O)N[C@@H](CCC(N)=O)C(=O)N[C@@H](CC(C)C)C(=O)N[C@@H](CCSC)C(=O)N[C@@H](Cc1c[nH]cn1)C(=O)N[C@@H](CC(N)=O)C(=O)N[C@@H](CC(C)C)C(=O)NCC(=O)N[C@@H](CCCCN)C(=O)N[C@@H](Cc1c[nH]cn1)C(=O)N[C@@H](CC(C)C)C(=O)N[C@@H](CC(N)=O)C(=O)N[C@@H](CO)C(=O)N[C@@H](CCSC)C(=O)N[C@@H](CCC(=O)O)C(=O)N[C@@H](CCCNC(=N)N)C(=O)N[C@H](C(=O)N[C@@H](CCC(=O)O)C(=O)N[C@@H](Cc1c[nH]c2ccccc12)C(=O)N[C@@H](CC(C)C)C(=O)N[C@@H](CCCNC(=N)N)C(=O)N[C@@H](CCCCN)C(=O)N[C@H](C(=O)N[C@@H](CC(C)C)C(=O)N[C@@H](CCC(N)=O)C(=O)N[C@@H](CC(=O)O)C(=O)N[C@H](C(=O)N[C@@H](Cc1c[nH]cn1)C(=O)N[C@@H](CC(N)=O)C(=O)N[C@@H](Cc1ccccc1)C(=O)O)C(C)C)[C@@H](C)O)C(C)C` [[Thr^27]hPTH(1-34)], the “Biological Activity, Represented by Relative Activity to hPTH(1-34)” value came to 0.96.

With “SVSEIQLMHNLGKHKKKMERVEWLRKHLQDVHNF [[Lys^15,16,17,His^27]hPTH (1-34), [Lys^15,16,17,His^27]hPTH(1-34)]”, the “Biological Activity, Represented by Relative Activity to hPTH(1-34)” value is 7.47.

In the case of `CC[C@H](C)[C@H](NC(=O)[C@H](CCC(=O)O)NC(=O)[C@H](CO)NC(=O)[C@@H](NC(=O)[C@@H](N)CO)C(C)C)C(=O)N[C@@H](CCC(N)=O)C(=O)N[C@@H](CC(C)C)C(=O)N[C@@H](CCSC)C(=O)N[C@@H](Cc1c[nH]cn1)C(=O)N[C@@H](CC(N)=O)C(=O)N[C@@H](CC(C)C)C(=O)NCC(=O)N[C@@H](CCCCN)C(=O)N[C@@H](Cc1c[nH]cn1)C(=O)N[C@@H](CC(C)C)C(=O)N[C@@H](CC(N)=O)C(=O)N[C@@H](CO)C(=O)N[C@@H](CCSC)C(=O)N[C@@H](CCC(=O)O)C(=O)N[C@@H](CCCNC(=N)N)C(=O)N[C@H](C(=O)N[C@@H](CCC(=O)O)C(=O)N[C@@H](Cc1c[nH]c2ccccc12)C(=O)N[C@@H](CC(C)C)C(=O)N[C@@H](CCCNC(=N)N)C(=O)N[C@@H](CCCCN)C(=O)N[C@@H](CCCCN)C(=O)N[C@@H](CC(C)C)C(=O)N[C@@H](CCC(N)=O)C(=O)N[C@@H](CC(=O)O)C(=O)N[C@H](C(=O)N[C@@H](Cc1c[nH]cn1)C(=O)N[C@@H](CC(N)=O)C(=O)N[C@@H](Cc1ccccc1)C(=O)O)C(C)C)C(C)C` [hPTH(1-34), reference compound], the “Biological Activity, Represented by Relative Activity to hPTH(1-34)” value came to 1.00.

Consider `CC[C@H](C)[C@H](NC(=O)[C@H](CCC(=O)O)NC(=O)[C@H](CO)NC(=O)[C@@H](NC(=O)[C@@H](N)CO)C(C)C)C(=O)N[C@@H](CCC(N)=O)C(=O)N[C@@H](CC(C)C)C(=O)N[C@@H](CCSC)C(=O)N[C@@H](Cc1c[nH]cn1)C(=O)N[C@@H](CC(N)=O)C(=O)N[C@@H](CC(C)C)C(=O)NCC(=O)N[C@@H](CCCCN)C(=O)N[C@@H](Cc1c[nH]cn1)C(=O)N[C@@H](CC(C)C)C(=O)N[C@@H](CCCCNC(N)=O)C(=O)N[C@@H](CO)C(=O)N[C@@H](CCSC)C(=O)N[C@@H](CCC(=O)O)C(=O)N[C@@H](CCCNC(=N)N)C(=O)N[C@H](C(=O)N[C@@H](CCC(=O)O)C(=O)N[C@@H](Cc1c[nH]c2ccccc12)C(=O)N[C@@H](CC(C)C)C(=O)N[C@@H](CCCNC(=N)N)C(=O)N[C@@H](CCCCN)C(=O)N[C@@H](CCC(N)=O)C(=O)N[C@@H](CC(C)C)C(=O)N[C@@H](CCC(N)=O)C(=O)N[C@@H](CC(=O)O)C(=O)N[C@H](C(=O)N[C@@H](Cc1c[nH]cn1)C(=O)N[C@@H](CC(N)=O)C(=O)N[C@@H](Cc1ccccc1)C(=O)O)C(C)C)C(C)C` [[Hci^16,Gln^27]hPTH(1-34)] (H-SVSEIQLMHNLGKHL[hCit]SMERVEWLRKQLQDVHNF-OH), for which the “Biological Activity, Represented by Relative Activity to hPTH(1-34)” value worked out at 1.54.

For the compound “SVSEIQLMHNLGKHLNSMERVEWLRQQLQDVHNF [[Gln^26,27]hPTH(1-34)]”, the “Biological Activity, Represented by Relative Activity to hPTH(1-34)” value amounted to 1.19.

Consider `CC[C@H](C)[C@H](NC(=O)[C@H](CCC(=O)O)NC(=O)[C@H](CO)NC(=O)[C@@H](NC(=O)[C@@H](N)CO)C(C)C)C(=O)N[C@@H](CCC(N)=O)C(=O)N[C@@H](CC(C)C)C(=O)N[C@@H](CCSC)C(=O)N[C@@H](Cc1c[nH]cn1)C(=O)N[C@@H](CC(N)=O)C(=O)N[C@@H](CC(C)C)C(=O)NCC(=O)N[C@@H](CCCCN)C(=O)N[C@@H](Cc1c[nH]cn1)C(=O)N[C@@H](CC(C)C)C(=O)N[C@@H](CCC(=O)O)C(=O)N[C@@H](CO)C(=O)N[C@@H](CCSC)C(=O)N[C@@H](CCC(=O)O)C(=O)N[C@@H](CCCNC(=N)N)C(=O)N[C@H](C(=O)N[C@@H](CCC(=O)O)C(=O)N[C@@H](Cc1c[nH]c2ccccc12)C(=O)N[C@@H](CC(C)C)C(=O)N[C@@H](CCCNC(=N)N)C(=O)N[C@@H](CCCCN)C(=O)N[C@@H](CCCCN)C(=O)N[C@@H](CC(C)C)C(=O)N[C@@H](CCC(N)=O)C(=O)N[C@@H](CC(=O)O)C(=O)N[C@H](C(=O)N[C@@H](Cc1c[nH]cn1)C(=O)N[C@@H](CC(N)=O)C(=O)N[C@@H](Cc1ccccc1)C(=O)O)C(C)C)C(C)C` [[Glu^16]hPTH(1-34)], for which the “Biological Activity, Represented by Relative Activity to hPTH(1-34)” value came out at 1.55.

Consider “SVSEIQLMHNLGKHLRSMERVEWLRKQLQDVHNF [[Arg^16,Gln^27]hPTH(1-34)]”, for which the “Biological Activity, Represented by Relative Activity to hPTH(1-34)” value worked out at 2.16.

As to `CC[C@H](C)[C@H](NC(=O)[C@H](CCC(=O)O)NC(=O)[C@H](CO)NC(=O)[C@@H](NC(=O)[C@@H](N)CO)C(C)C)C(=O)N[C@@H](CCC(N)=O)C(=O)N[C@@H](CC(C)C)C(=O)N[C@@H](CCSC)C(=O)N[C@@H](Cc1c[nH]cn1)C(=O)N[C@@H](CC(N)=O)C(=O)N[C@@H](CC(C)C)C(=O)NCC(=O)N[C@@H](CCCCN)C(=O)N[C@@H](Cc1c[nH]cn1)C(=O)N[C@@H](CC(C)C)C(=O)N[C@H](CCCCN)C(=O)N[C@@H](CO)C(=O)N[C@@H](CCSC)C(=O)N[C@@H](CCC(=O)O)C(=O)N[C@@H](CCCNC(=N)N)C(=O)N[C@H](C(=O)N[C@@H](CCC(=O)O)C(=O)N[C@@H](Cc1c[nH]c2ccccc12)C(=O)N[C@@H](CC(C)C)C(=O)N[C@@H](CCCNC(=N)N)C(=O)N[C@@H](CCCCN)C(=O)N[C@@H](CCCCN)C(=O)N[C@@H](CC(C)C)C(=O)N[C@@H](CCC(N)=O)C(=O)N[C@@H](CC(=O)O)C(=O)N[C@H](C(=O)N[C@@H](Cc1c[nH]cn1)C(=O)N[C@@H](CC(N)=O)C(=O)N[C@@H](Cc1ccccc1)C(=O)O)C(C)C)C(C)C` [[D-Lys^16]hPTH(1-34)], the “Biological Activity, Represented by Relative Activity to hPTH(1-34)” value turned out to be 0.86.
